Tested on: Plasmodium berghei
Experiment: Luciferase/luciferin-expressing antifolate-resistant parasites were used to infect a culture of HepG2 cells that were pre-incubated with compounds. Infected hepatocytes emit light due to the luciferase reaction. Assay results are presented as the percent inhibition of light emission compared to control. […]
Assay type: functional
Details: sporozoite; for IC90: read-out: LUCIFERASE INFECTION ASSAY - IC90

Structure (SMILES) | IC90 | also measured
CCOc1ccc(-n2c(-c3ccc(Cl)cc3)c[n+]3c2SCC3)cc1 | 8.41 µM | IC50 (HEPG2TOX_HILL_SLOPE 17.5, HEPG2TOX_R_SQUARED 0.639, PBLUC_HILL_SLOPE 3.46, PBLUC_R_SQUARED 0.768, read-out: LUCIFERASE INFECTION ASSAY - IC50): 4.45 µM
O=C(Nc1ccc(SC(F)(F)F)cc1)Nc1ccc(-n2ccc(C(F)(F)F)n2)cc1 | 2.69 µM | IC50 (HEPG2TOX_HILL_SLOPE 17.7, HEPG2TOX_R_SQUARED 0.761, PBLUC_HILL_SLOPE 20.9, PBLUC_R_SQUARED 0.513, read-out: LUCIFERASE INFECTION ASSAY - IC50): 2.42 µM
Cn1nc(-c2ccc(C(=O)Nc3ccccc3)s2)cc1C(F)(F)F | 8.54 µM | IC50 (HEPG2TOX_HILL_SLOPE 17.1, HEPG2TOX_R_SQUARED 0.873, PBLUC_HILL_SLOPE 3.01, PBLUC_R_SQUARED 0.475, read-out: LUCIFERASE INFECTION ASSAY - IC50): 4.12 µM
CCOc1cc(/C=C2\S/C(=N\C3CCCC3)NC2=O)cc(Br)c1OCC | 3.94 µM | IC50 (HEPG2TOX_HILL_SLOPE 17, HEPG2TOX_R_SQUARED 0.811, PBLUC_HILL_SLOPE 15.3, PBLUC_R_SQUARED 0.445, read-out: LUCIFERASE INFECTION ASSAY - IC50): 3.41 µM
COc1cc(Nc2nccn3c(-c4ccc(OC(F)(F)F)cc4)cnc23)cc(OC)c1OC | 4.53 µM | IC50 (HEPG2TOX_HILL_SLOPE 16.8, HEPG2TOX_R_SQUARED 0.492, PBLUC_HILL_SLOPE 4.79, PBLUC_R_SQUARED 0.767, read-out: LUCIFERASE INFECTION ASSAY - IC50): 2.86 µM
Cc1ccnc(NC(=O)Cc2cnn(-c3ccccc3)c2)c1 | 9.95 µM | IC50 (HEPG2TOX_HILL_SLOPE 17.5, HEPG2TOX_R_SQUARED 0.943, PBLUC_HILL_SLOPE 16.3, PBLUC_R_SQUARED 0.0531, read-out: LUCIFERASE INFECTION ASSAY - IC50): 8.7 µM
CCOC(=O)N/N=C(\CC)c1ccc(-c2ccccc2F)cc1 | > 10.5 µM | IC50 (HEPG2TOX_HILL_SLOPE 16.9, HEPG2TOX_R_SQUARED 0.877, PBLUC_HILL_SLOPE 3.23, PBLUC_R_SQUARED 0.461, read-out: LUCIFERASE INFECTION ASSAY - IC50): 6.06 µM
CC(=O)c1c(C)[nH]c(C(=O)Nc2ccc(Oc3ccccc3Cl)cc2)c1C | 7.08 µM | IC50 (HEPG2TOX_HILL_SLOPE 17, HEPG2TOX_R_SQUARED 0.739, PBLUC_HILL_SLOPE 1.26, 0.690, PBLUC_R_SQUARED 0.562, 0.913, read-out: LUCIFERASE INFECTION ASSAY - IC50): 0.831 µM
COC(=O)c1sccc1Oc1ccc(C(F)(F)F)cc1NS(=O)(=O)c1cc(C(F)(F)F)cc(C(F)(F)F)c1 | 3.04 µM | IC50 (HEPG2TOX_HILL_SLOPE 17.5, HEPG2TOX_R_SQUARED 0.823, PBLUC_HILL_SLOPE 4.85, PBLUC_R_SQUARED 0.307, read-out: LUCIFERASE INFECTION ASSAY - IC50): 1.93 µM
CN1CCN(c2ccc(-c3cn4c(-c5ccc6ncccc6c5)cnc4cn3)cc2)CC1 | 7.74 µM | IC50 (HEPG2TOX_HILL_SLOPE 17, HEPG2TOX_R_SQUARED 0.823, PBLUC_HILL_SLOPE 14.3, PBLUC_R_SQUARED 0.731, read-out: LUCIFERASE INFECTION ASSAY - IC50): 6.63 µM
Cc1cc(C)nc(N/N=C/c2cn(-c3ccccc3)nc2-c2ccc3c(c2)OCCO3)n1 | 9.32 µM | IC50 (HEPG2TOX_HILL_SLOPE 17.9, HEPG2TOX_R_SQUARED 0.773, PBLUC_HILL_SLOPE 3.73, PBLUC_R_SQUARED 0.671, read-out: LUCIFERASE INFECTION ASSAY - IC50): 5.18 µM
C=CCn1c(COc2ccc(CC)cc2)nnc1SCC(=O)/C(C#N)=C(\C)N | > 10 µM | IC50 (HEPG2TOX_HILL_SLOPE 17.4, HEPG2TOX_R_SQUARED 0.832, PBLUC_HILL_SLOPE 1.76, PBLUC_R_SQUARED 0.574, read-out: LUCIFERASE INFECTION ASSAY - IC50): 6.67 µM
CN1/C(=C\C=N\NC(=O)c2ccccc2NS(=O)(=O)c2cccs2)C(C)(C)c2ccccc21 | 1.2 µM | IC50 (HEPG2TOX_HILL_SLOPE 16.9, HEPG2TOX_R_SQUARED 0.641, PBLUC_HILL_SLOPE 12.4, PBLUC_R_SQUARED 0.659, read-out: LUCIFERASE INFECTION ASSAY - IC50): 1.01 µM
Cc1ccc(NC(=O)c2cccc(-c3ccc(O)cc3)c2)cc1Cl | 4.26 µM | IC50 (HEPG2TOX_HILL_SLOPE 17.8, HEPG2TOX_R_SQUARED 0.895, PBLUC_HILL_SLOPE 28.1, PBLUC_R_SQUARED 0.516, read-out: LUCIFERASE INFECTION ASSAY - IC50): 3.94 µM
COc1cccc(Nc2nc(-c3ccc(CCC(C)NC(C)=O)cc3)cs2)c1 (configuration not stated) | 8.54 µM | IC50 (HEPG2TOX_HILL_SLOPE 17.1, HEPG2TOX_R_SQUARED 0.93, PBLUC_HILL_SLOPE 0.895, PBLUC_R_SQUARED 0.745, read-out: LUCIFERASE INFECTION ASSAY - IC50): 0.734 µM
COC(=O)c1c(NC(=O)c2cccnc2)c2cc(NCC3CCCCC3)cnc2n1Cc1ccccc1 | > 6.63 µM | IC50 (HEPG2TOX_HILL_SLOPE 17.8, HEPG2TOX_R_SQUARED 0.594, PBLUC_HILL_SLOPE 8.22, PBLUC_R_SQUARED 0.247, read-out: LUCIFERASE INFECTION ASSAY - IC50): 5.43 µM

Structure (SMILES) | IC90 | also measured
CCS(=O)(=O)N1CCC(C(=O)Nc2nnc(-c3cccc([N+](=O)[O-])c3)o2)(c2ccccc2)CC1 | 4.58 µM | IC50 (HEPG2TOX_HILL_SLOPE 16.8, 22.3, HEPG2TOX_R_SQUARED 0.565, 0.956, PBLUC_HILL_SLOPE 8.45, PBLUC_R_SQUARED 0.439, read-out: LUCIFERASE INFECTION ASSAY - IC50): 3.53 µM
COc1cncc(-c2cnn3ccc(Nc4ccc(Oc5ccccc5)cc4)nc23)c1 | > 8.06 µM | IC50 (HEPG2TOX_HILL_SLOPE 17.9, HEPG2TOX_R_SQUARED 0.509, PBLUC_HILL_SLOPE 0.505, PBLUC_R_SQUARED 0.666, read-out: LUCIFERASE INFECTION ASSAY - IC50): > 8.06 µM
CC(C)C(C)CCC(C)C1CC=C2C3CCC4CC(O)CCC4(C)C3CCC21C (configuration not stated) | 0.344 µM | IC50 (HEPG2TOX_HILL_SLOPE 17.3, HEPG2TOX_R_SQUARED 0.943, PBLUC_HILL_SLOPE 11.3, PBLUC_R_SQUARED 0.846, read-out: LUCIFERASE INFECTION ASSAY - IC50): 0.284 µM
O=C(/C(Br)=C/c1ccc([N+](=O)[O-])cc1)c1ccccc1 | > 10 µM | IC50 (HEPG2TOX_HILL_SLOPE 17, HEPG2TOX_R_SQUARED 0.837, PBLUC_HILL_SLOPE 13.5, PBLUC_R_SQUARED 0.0643, read-out: LUCIFERASE INFECTION ASSAY - IC50): 9.16 µM
Cc1cc(C)c(NC(=O)c2cc(C)on2)c(C)c1 | > 10 µM | IC50 (HEPG2TOX_HILL_SLOPE 17.1, HEPG2TOX_R_SQUARED 0.826, PBLUC_HILL_SLOPE 16.1, PBLUC_R_SQUARED 0.022, read-out: LUCIFERASE INFECTION ASSAY - IC50): 9.8 µM
Cc1cc(CN2CCc3ccccc3C2)c(C)cc1O | > 10 µM | IC50 (HEPG2TOX_HILL_SLOPE 17.5, HEPG2TOX_R_SQUARED 0.797, read-out: LUCIFERASE INFECTION ASSAY - IC50): > 10 µM
Cc1cc(NC(=O)N2CCN(Cc3ccc(-c4ccccc4Cl)s3)CC2)no1 | > 10 µM | IC50 (HEPG2TOX_HILL_SLOPE 17.1, HEPG2TOX_R_SQUARED 0.65, PBLUC_HILL_SLOPE 0.759, PBLUC_R_SQUARED 0.724, read-out: LUCIFERASE INFECTION ASSAY - IC50): 1.19 µM
CN(C)CCCN1C(=O)N(CCc2ccccc2)C2(CCN(Cc3cn(C)c4ccccc34)CC2)C1=O | 6.2 µM | IC50 (HEPG2TOX_HILL_SLOPE 17.2, HEPG2TOX_R_SQUARED 0.602, PBLUC_HILL_SLOPE 5.41, PBLUC_R_SQUARED 0.643, read-out: LUCIFERASE INFECTION ASSAY - IC50): 4.13 µM
Cn1c(NCc2ccccc2)nc2cnc(Nc3cccc(Oc4ccccc4)c3)cc21 | 3.9 µM | IC50 (HEPG2TOX_HILL_SLOPE 16.8, HEPG2TOX_R_SQUARED 0.905, PBLUC_HILL_SLOPE 16.2, PBLUC_R_SQUARED 0.526, read-out: LUCIFERASE INFECTION ASSAY - IC50): 3.4 µM
CCCNC(=O)c1c(NC(=O)c2ccc(F)cc2)nc2ccccn12 | 5.82 µM | IC50 (HEPG2TOX_HILL_SLOPE 16.9, HEPG2TOX_R_SQUARED 0.391, PBLUC_HILL_SLOPE 4.88, PBLUC_R_SQUARED 0.525, read-out: LUCIFERASE INFECTION ASSAY - IC50): 3.71 µM
Cn1c(-c2ccccc2)c(/C=N/Nc2ccnc3cc(Cl)ccc23)c2ccccc21 | 6.47 µM | IC50 (HEPG2TOX_HILL_SLOPE 17.0, 5.95, HEPG2TOX_R_SQUARED 0.687, 0.986, PBLUC_HILL_SLOPE 1.29, PBLUC_R_SQUARED 0.592, read-out: LUCIFERASE INFECTION ASSAY - IC50): 1.17 µM
Cc1nc(C2CC2)nc(SC(C)C)c1C#N | > 10 µM | IC50 (HEPG2TOX_HILL_SLOPE 17, HEPG2TOX_R_SQUARED 0.522, PBLUC_HILL_SLOPE 1.64, PBLUC_R_SQUARED 0.538, read-out: LUCIFERASE INFECTION ASSAY - IC50): 5.26 µM
CCN(CC)c1ccc(Nc2nc(-c3ccncc3)cs2)cc1 | > 8.14 µM | IC50 (HEPG2TOX_HILL_SLOPE 17.3, HEPG2TOX_R_SQUARED 0.807, PBLUC_HILL_SLOPE 2.78, PBLUC_R_SQUARED 0.42, read-out: LUCIFERASE INFECTION ASSAY - IC50): 4.75 µM
Fc1ccc(-c2cc3[nH]c(NCc4ccccc4)nc3cn2)cc1Cl | 5.42 µM | IC50 (HEPG2TOX_HILL_SLOPE 17.8, HEPG2TOX_R_SQUARED 0.722, PBLUC_HILL_SLOPE 354, PBLUC_R_SQUARED 0.159, read-out: LUCIFERASE INFECTION ASSAY - IC50): 5.38 µM
O=C1C(=O)N(Cc2ccco2)C(=O)N1Cc1ccc(-c2ccccc2)cc1 | > 10 µM | IC50 (HEPG2TOX_HILL_SLOPE 17.7, HEPG2TOX_R_SQUARED 0.836, PBLUC_HILL_SLOPE 2.05, PBLUC_R_SQUARED 0.957, read-out: LUCIFERASE INFECTION ASSAY - IC50): 4.16 µM

Reference: ChEMBL document CHEMBL4483862, “Open-source discovery of chemical leads for next-generation chemoprotective antimalarials” (2018)
